Experimental data reported in ChEMBL document CHEMBL1201862, “PubChem BioAssay data set” (2004).
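Compound exposure: 48 hours, 5 concentrations, 96-well plates. Here, GI50 denotes the concentration required for 50% inhibition of growth.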 Calls of active or inactive are those of the source. No stated cut-off is given here; in the data, active = GI50 up to about 1.1 µM and inactive = higher.

Assays:
Experiment in all cases: DTP human tumour cell line panel, 48 h
[1] = tested on: HOP-92
[2] = tested on: SK-MEL-5
[3] = tested on: UO-31
[4] = tested on: KM12
[5] = tested on: SNB-19
[6] = tested on: HL-60
[7] = tested on: MOLT-4
[8] = tested on: CCRF-CEM
[9] = tested on: SNB-75
[10] = tested on: CAKI-1
[11] = tested on: TK-10
[12] = tested on: NCI-H226
[13] = tested on: SR
[14] = tested on: DU-145
[15] = tested on: OVCAR-8
[16] = tested on: NCI-H522
[17] = tested on: SF-539
[18] = tested on: BT-549
[19] = tested on: OVCAR-3

Measured: GI50

C[C@@H](c1ccccc1)N1C[C@@H](c2ccc3c(c2)OCO3)[C@@H]2C(=O)CCC[C@@H]21
inactive: [1] 47.1 µM | [2] 36.8 µM | [3] 83 µM | [4] 97.9 µM | [5] 75 µM | [6] 34.1 µM | [7] 30.3 µM | [8] 61 µM | [9] 36.4 µM | [10] > 100 µM | [11] > 100 µM | [12] > 100 µM | [13] 42.8 µM | [14] > 100 µM | [15] > 100 µM | [16] 42.5 µM

CCNCCNC(=O)c1ccc(Br)cc1
inactive: [1] > 100 µM | [2] > 100 µM | [3] > 100 µM | [4] > 100 µM | [17] > 100 µM | [5] > 100 µM | [6] > 100 µM | [7] > 100 µM | [8] > 100 µM | [9] 63.4 µM | [10] > 100 µM | [18] > 100 µM | [11] > 100 µM | [12] > 100 µM | [13] > 100 µM | [15] > 100 µM | [19] > 100 µM

O=c1oc2cccnc2n1CCN1CCN(c2ccc(Oc3ccccc3)cc2)CC1
inactive: [1] 57.3 µM | [2] 10.2 µM | [3] 41.1 µM | [17] > 100 µM | [5] > 100 µM | [6] 8.04 µM | [7] 19.7 µM | [8] 7.21 µM | [9] 11.1 µM | [10] > 100 µM | [11] 61.8 µM | [13] 8.71 µM | [14] > 100 µM | [15] > 100 µM | [19] 25.5 µM | [16] 31.6 µM

COC(=O)Cc1cc(=O)[nH]c2c1C(=O)CCC2
inactive: [1] > 100 µM | [2] > 100 µM | [3] > 100 µM | [4] > 100 µM | [17] > 100 µM | [5] > 100 µM | [6] > 100 µM | [7] > 100 µM | [8] > 100 µM | [11] > 100 µM | [12] > 100 µM | [13] > 100 µM | [15] > 100 µM | [19] > 100 µM | [16] > 100 µM

CC1CC(C)CC(NC2=NCCO2)C1 (stereo not drawn)
inactive: [1] > 100 µM | [2] > 100 µM | [3] > 100 µM | [4] > 100 µM | [17] > 100 µM | [5] > 100 µM | [6] > 100 µM | [7] > 100 µM | [8] > 100 µM | [10] > 100 µM | [11] > 100 µM | [12] > 100 µM | [13] > 100 µM | [14] > 100 µM | [15] > 100 µM | [19] > 100 µM | [16] > 100 µM

COC(=O)[C@@H]1CN(C(C)=O)C(=O)N1C(=O)OCc1ccccc1
inactive: [1] > 100 µM | [2] > 100 µM | [3] > 100 µM | [4] > 100 µM | [17] > 100 µM | [5] > 100 µM | [6] > 100 µM | [7] > 100 µM | [8] > 100 µM | [10] > 100 µM | [11] > 100 µM | [12] > 100 µM | [13] > 100 µM | [14] > 100 µM | [15] > 100 µM | [19] > 100 µM | [16] > 100 µM

CCC(=O)c1cn(C)c(=O)c2ccccc12
inactive: [1] > 100 µM | [2] > 100 µM | [3] > 100 µM | [4] > 100 µM | [17] > 100 µM | [5] > 100 µM | [6] > 100 µM | [7] > 100 µM | [8] > 100 µM | [9] 36.5 µM | [10] > 100 µM | [11] > 100 µM | [12] > 100 µM | [13] > 100 µM | [15] > 100 µM | [19] > 100 µM | [16] > 100 µM

O=C(O)CNC(=O)c1ccc(-c2ccccc2)cc1
inactive: [1] 61.1 µM | [2] > 100 µM | [3] > 100 µM | [4] > 100 µM | [17] > 100 µM | [5] > 100 µM | [6] > 100 µM | [7] > 100 µM | [8] > 100 µM | [10] > 100 µM | [11] > 100 µM | [12] > 100 µM | [13] > 100 µM | [14] > 100 µM | [15] > 100 µM | [19] > 100 µM | [16] > 100 µM

COc1ccc(CNc2nc(NCc3ccc(OC)cc3)nc(NC(C)C)n2)cc1
inactive: [1] 3.37 µM | [2] 4.85 µM | [3] 19.5 µM | [4] 5.07 µM | [17] 9.08 µM | [5] 84.1 µM | [6] 4.08 µM | [7] 42.7 µM | [9] 7.08 µM | [10] 20.3 µM | [11] 17.9 µM | [13] 3.84 µM | [14] 19.2 µM | [15] 13.1 µM | [19] 3.33 µM | [16] 3.03 µM

CCCCN(CCCC)CCC(O)c1cc(-c2ccc(C(F)(F)F)cc2)nc(-c2ccc(C(F)(F)F)cc2)c1 (stereo not drawn)
inactive: [1] > 100 µM | [3] > 100 µM | [17] > 100 µM | [5] > 100 µM | [6] > 100 µM | [7] > 100 µM | [8] > 100 µM | [9] > 100 µM | [10] > 100 µM | [11] > 100 µM | [13] > 100 µM | [14] > 100 µM | [15] > 100 µM | [19] > 100 µM | [16] > 100 µM

O=C(Nc1ccc(Br)cc1)c1c(-c2ccccc2)c2ccc(O)cc2oc1=O
inactive: [1] > 10 µM | [2] > 10 µM | [3] > 10 µM | [4] > 10 µM | [17] > 10 µM | [6] > 10 µM | [7] > 10 µM | [8] > 10 µM | [9] > 10 µM | [10] > 10 µM | [11] > 10 µM | [12] > 10 µM | [13] > 10 µM | [14] > 10 µM | [15] > 10 µM | [19] > 10 µM | [16] > 10 µM

O=C(NC(CS)C(=O)O)c1cccc2c(=O)c3ccccc3[nH]c12 (stereo not drawn)
inactive: [1] > 100 µM | [2] > 100 µM | [3] > 100 µM | [4] > 100 µM | [5] > 100 µM | [6] > 100 µM | [7] > 100 µM | [9] > 100 µM | [11] > 100 µM | [12] > 100 µM | [13] > 100 µM | [14] > 100 µM | [15] > 100 µM | [19] > 100 µM | [16] 47 µM

O=[N+]([O-])c1ccc(/C=C/c2ccc(/C=C/c3ccc([N+](=O)[O-])cc3[N+](=O)[O-])cc2)c([N+](=O)[O-])c1
inactive: [2] > 100 µM | [3] > 100 µM | [4] > 100 µM | [17] > 100 µM | [6] > 100 µM | [7] > 100 µM | [8] > 100 µM | [9] > 100 µM | [10] > 100 µM | [11] > 100 µM | [12] > 100 µM | [15] > 100 µM | [19] > 100 µM

N#C/C(C(=O)NCc1ccccc1)=C(/N)N1CCCC1
inactive: [1] 97.7 µM | [2] > 100 µM | [3] 46.3 µM | [4] > 100 µM | [17] > 100 µM | [5] > 100 µM | [6] > 100 µM | [7] > 100 µM | [8] > 100 µM | [10] 39.6 µM | [11] > 100 µM | [12] > 100 µM | [13] > 100 µM | [14] > 100 µM | [15] > 100 µM | [19] > 100 µM | [16] > 100 µM

CC(C)(/N=N/C(C)(C)C1=NCCN1)C1=NCCN1
inactive: [2] > 100 µM | [3] > 74 µM | [4] > 100 µM | [17] > 67.1 µM | [5] > 100 µM | [7] > 100 µM | [8] > 100 µM | [9] > 100 µM | [10] > 83.9 µM | [18] > 100 µM | [11] > 56 µM | [12] > 100 µM | [14] > 100 µM | [15] > 100 µM | [19] > 100 µM

Cc1cc(C)c(OC(=O)Nc2cccc3ccccc23)c(-c2ccccc2)c1
inactive: [1] 26.1 µM | [2] 16.4 µM | [3] 7.52 µM | [4] 28.4 µM | [17] 57 µM | [6] 21.1 µM | [7] 3.81 µM | [8] 22.2 µM | [9] 14.5 µM | [10] 33.7 µM | [11] 33.4 µM | [12] 18.3 µM | [13] 19.6 µM | [14] 31.9 µM | [15] 33.6 µM | [19] 24.5 µM

CCCCOP(=O)(OCCCC)C(NS(=O)(=O)c1ccccc1)(C(=O)OCC)C(F)(F)F (stereo not drawn)
inactive: [1] 23.8 µM | [2] 18.1 µM | [3] > 100 µM | [4] 31 µM | [17] 19.5 µM | [5] 29.2 µM | [6] 19.3 µM | [7] 20.2 µM | [8] 27.2 µM | [9] 27.6 µM | [10] 16.4 µM | [11] 33.9 µM | [12] 27.6 µM | [13] 26.7 µM | [14] 45.3 µM | [15] 40.1 µM | [19] 25.1 µM
